Entries after “also recorded” stand apart in the source; their conditions may differ. Read-outs that look alike come from different tables or passages of the source.
Legend:
[1] = Prothrombine levels in patients under oral anti-coagulants therapy; type: in vivo, human; settings: 900 mg daily with long-term oral anti-coagulants
Description: (§1) After a single oral intake of 200 mg the effect lasts for at least 6 h. Repeated administration of 1-(4-isopropylthiophenyl)-2-n-octylaminopropanol seems to optimalize its anti-platelet activity. […] Moreover, investigations on its mode of action indicate that the mechanism involved are quantitatively and qualitatively different from these of the other known anti-platelet agents.

[2] = system: ADP, L-epinephrine, collagen and Thrombofax induced aggregation; test: Ex-vivo platelet aggregation after oral administration to healthy volunteers; set-up: species or system human
Description: as §1

cholesterol biosynthesis = test: Inhibition of cholesterol biosynthesis in vitro (rat liver); type: cell-based; settings: for inhibition at 100 µM / inhibition at 10 µM: Rattus norvegicus, rat liver, mean; for inhibition at 100 µM: 10^-4 M; for inhibition at 10 µM: 10^-5 M; for inhibition of cholesterol biosynthesis (in words): in vitro
Excerpt: |Inhibition of cholesterol biosynthesis in vitro (rat liver). In- |hibitory effect of suloctidil and clofibrate on the incorpora- |tion of 1-^14 [NT] and 2-^14 C-mevalonate (MVA). |are mean values and range, expressed in % of inhibition. Unless |otherwise stated, n = 3.

[3] = system: peripheral vasodilatatory activity; test: Vasodilatory effect after intraarterial injection in dog; type: in vivo
Description: (1) intraarterial injection in dog (5 animals) 10, 20 and 30 μg/kg.
(2) maximum vasodilatory effect in mm of Hg.
(3) and (4) expressed in seconds.

[4] = system: experimental type II hyperlipidemia; test: Experimental type II hyperlipidemia in monkeys; type: in vivo, monkey
[5] = system: vasoconstrictions induced by norepinephrine and angiotensine in the femoral circulation; test: Inhibition of vasoconstrictions in the femoral circulation of dogs; set-up: species or system dog; settings: in vivo, FIG. 1: i.a. 10 μg/kg/min, listed as suloctidil
Excerpt: The vasoconstrictions are induced by i.a. norepinephrine (n=10) or angiotensine (n=8) during solvent (C) or drug (T) infusion.
Vertical bars are standard errors of the means and * or *** indicate statistically significant differences from the corresponding control values at the thresholds α=0.05 and 0.001 respectively.

[6] = Blood viscosity and plasma fibrinogen in geriatric patients (pilot studies); type: in vivo, human; settings: long-term treatment
Hist. = test: Antispasmodic activity, Hist.
[7] = system: vascular contractile cell; test: Vascular antispasmodic activity: inhibition of induced vasoconstrictions in vitro and in vivo
DL50 mouse p.o. = settings: in vivo, po, limits of reliability (p : 0.95) in brackets
Excerpt: (1) the limits of reliability (p : 0.95) are given in brackets.

platelet functions = test: Platelet antiaggregating properties in vitro and in vivo
[8] = system: catecholamines and methylxanthine induced lipolysis; test: Antilipolytic activity in vitro in rat epididymal fat; type: cell-based
[9] = system: peripheral and cerebral circulations; test: Blood flow in peripheral and cerebral circulations after i.v. or oral administration; type: in vivo; settings: mice or dogs
[10] = system: spontaneously hypertensive rat; test: Antihypertensive activity (spontaneously hypertensive rat); type: in vivo; settings: 15 mg/kg per os
Description: (3) spontaneously hypertensive rat; 15 mg/kg per os;
± reduction of systolic pressure up to 10 mm of Hg
+ reduction of systolic pressure of 10 to 20 mm Hg
++ reduction of systolic pressure of at least 20 mm of Hg

lipoproteinlipases = test: Inhibitory effect on lipoproteinlipases; type: biochemical
[11] = system: platelets emboli triggered by ADP; test: Platelets emboli triggered by ADP in mice or rats; type: in vivo
Excerpt: Since platelet aggregation is considered to be of paramount importance in thrombus formation, this anti-platelet activity of 1-(4-isopropylthiophenyl)-2-n-octylaminopropanol (suloctidil) is likely to explain its anti-thrombotic properties.

[12] = system: thrombosis of the hepatic veins; test: Prevention of deep veins thrombosis in rats; type: in vivo, rat; settings: for n rats with score 2: control 1; for n rats with score 3: control 2; for n rats with score 1: control 12, * α = 0.05; for n rats with score 0: control 13, ** α = 0.01; for thrombosis of the hepatic veins (in words): rats fed hyperlipidemic diet 3 months, endotoxin
Description: (see table VI given below).
Thrombosis in the hepatic veins were in-
duced in rats fed an hyperlipidemic diet for 3 months by i.v.
injection of endotoxin (lipopolysaccharide B from Salmonella
Sulcoctidil was administered into the diet. The importance of the
thrombosis assessed by scoring the subsequent red
hepatic infarcts according to their number and surface.

guinea pig atria's = test: Protective activity against anoxia (guinea pig atria); set-up: key: scale: + = 10 to 20% increase in survival time; settings: increase in survival time
Excerpt: (5) guinea pig atria's;
+ = increase in survival time of 10 to 20%

BaCl2 = test: Antispasmodic activity, BaCl2
[13] = system: occluding thrombosis of the femoral artery; test: Prevention of arterial thrombosis in dogs; type: in vivo, dog
Description: In animals, 1-(4-isopropylthiophenyl)-2-n-octylaminopropanol reduces thromboformation in arteries and veins.
Thrombosis was induced in the femoral
artery of anesthetized dogs by a 30 min perfusions, in a
catheterized area of the vessel, of a solution of pronase.
Drugs administrations were made at 24 h intervals, for 5 days
the last dosage being given 30 min before anesthesia.

Ac.chol. = test: Antispasmodic activity, Ac.chol.
Bleeding time in man = type: in vivo, human; settings: repeated administration
Description: as §1

[14] = AA, read-out: Inhibition of incorporation of 1-^14 C-acetate (AA)
[15] = MVA, read-out: Inhibition of incorporation of 2-^14 C-mevalonate (MVA)

## CCCCCCCCNC(C)C(O)c1ccc(SC(C)C)cc1 (stereo not drawn) [No 2, 1-(4-isopropylthiophenyl)-2-n-octylaminopropanol]
[1]
  prothrombine levels: does not markedly decrease prothrombine levels
[2]; ex-vivo, single oral administration, 200 mg or more, healthy volunteers
  inhibition of induced platelet aggregation: strongly inhibits ADP, L-epinephrine, collagen and Thrombofax induced aggregation
[2]; single oral intake of 200 mg
  duration of anti-aggregating effect: at least 6 h
Cholesterol biosynthesis; [14]
  inhibition at 100 µM: 49.4%
  inhibition at 10 µM: 27.5%
Cholesterol biosynthesis; [15]
  inhibition at 100 µM: 25.9%
  inhibition at 10 µM: 9.9%
Cholesterol biosynthesis
  inhibition of cholesterol biosynthesis (in words): strong inhibitor of cholesterol biosynthesis; also recorded: more specific than that of standard compounds like clofibrate
Cholesterol biosynthesis; listed as suloctidil
  inhibition of cholesterol biosynthesis (in words): markedly inhibits the biosynthesis of cholesterol
[3]
  peripheral vasodilatatory activity compared with papaverine: greater degree of activity than papaverine
[3]; 10 μg/kg
  Amplitude (maximum vasodilatory effect): 42 mm of Hg
  Duration of effect: 226 s
  Half-life (of vasodilatory effect): 1.57 min
[3]; 20 μg/kg
  Amplitude (maximum vasodilatory effect): 59 mm of Hg
  Duration of effect: 299 s
  Half-life (of vasodilatory effect): 2.32 min
[3]; 30 μg/kg
  Amplitude (maximum vasodilatory effect): 67 mm of Hg
  Duration of effect: 390 s
  Half-life (of vasodilatory effect): 2.63 min
[4]
  hypocholesterolemic and normolipoproteinemic effects: hypocholesterolemic and "normolipoproteinemic" effects observed in vivo
[5]
  inhibition of vasoconstrictions in the femoral circulation: potent inhibitor of vasoconstrictions; also recorded: more active than standard agents like papaverine and cinnarizine
[6]
  plasma fibrinogen levels: parallel reduction of the plasma fibrinogen levels
[6]; therapeutic dosage regimen
  reduction of blood hyperviscosity: about 10%
Hist.
  Antispasmodic activity CE 100, Hist.: 100 μ g γ 60 ml
[7]
  vascular antispasmodic activity and vasodilating action: potent vascular antispasmodic activity and vasodilating action
[7]; in vitro and in vivo, calcium, norepinephrine, 5-hydroxytryptamine and angiotensine
  inhibition of vasoconstrictions: inhibits, in vitro and in vivo, vasocontrictions induced by various agents like calcium, norepinephrine, 5-hydroxytryptamine and angiotensine
DL50 mouse p.o.
  LD50: 3700 mg/kg
Platelet functions
  platelet antiaggregating properties: potent platelet antiaggregating properties
Platelet functions; listed as suloctidil
  platelet antiaggregating properties: platelet anti-aggregating properties
[8]
  antilipolytic activity: potent antilipolytic activity
[9]
  increase in blood flow in peripheral and cerebral circulations: increase in blood flow in both peripheral and cerebral circulations
[10]
  Anti-hypertensive activity: 0
lipoproteinlipases
  direct inhibitory effect on lipoproteinlipases: direct inhibitory effect on the activity of different lipoproteinlipases
[11]; at the same dose
  activity compared with acetyl salicyclic acid: as active as acetyl salicyclic acid
[11]; oral, mice or rats
  formation of platelets emboli triggered by ADP: blocked or decreased the formation of platelets emboli triggered by ADP
[12]; 10 mg/kg/day in diet
  n rats with score 2: 0
  n rats with score 3: 0
  n rats with score 1: 4
  n rats with score 0: 25
[12]; 25 mg/kg/day in diet
  n rats with score 2: 0
  n rats with score 3: 0
  n rats with score 1: 5
  n rats with score 0: 23
[12]
  thrombosis of the hepatic veins (in words): protection is still conferred by a 10 mg/kg oral dose
[12]; listed as suloctidil
  thrombosis of the hepatic veins (in words): markedly less frequent and less developped
Guinea pig atria's
  Protective activity against anoxia: 0
BaCl2
  Antispasmodic activity CE 100, BaCl2: 100 μ g γ 60 ml
[13]; 5 × 5 mg/kg i.m., n = 16, controls 10 of 16, * α = 0.05
  n dogs with occluding thrombosis: 3
[13]; suloctidil 5 times 5 mg/kg i.m., acetylsalicylic acid 5 times 100 mg/kg p.o.
  incidence of occluding thrombosis of the femoral artery (in words): significantly lower
Ac.chol.
  Antispasmodic activity CE 100, Ac.chol.: 100 μ g γ 60 ml
Bleeding time in man
  bleeding time: does not prolong bleeding time in man
